Measured values from ChEMBL document CHEMBL5150068, “Structure-Based Design of Tropane Derivatives as a Novel Series of CCR5 Antagonists with Broad-Spectrum Anti-HIV-1 Activities and Improved Oral Bioavailability” (J Med Chem, 2022).
pEC50, pIC50: −log10 of the molar value.

Key:
[1] = system: Human immunodeficiency virus 1; experiment: Antiviral activity against HIV-1 KIZ001 clinical isolate infected in human PBMC measured after 48 hrs incubation by luciferase based analysis; type: functional, organism-based; conditions: Human immunodeficiency virus 1, KIZ001, PBMC
[2] = Cmax in Sprague-Dawley rat at 10 mg/kg, po measured upto 24 hrs; type: ADME, organism-based; design: time < 24 hrs, dose 10 mg/kg, route po; conditions: in vivo
[3] = system: Human immunodeficiency virus 1; experiment: Antiviral activity against HIV-1 KIZ006 clinical isolate infected in human PBMC measured after 48 hrs incubation by luciferase based analysis; type: functional, organism-based; conditions: Human immunodeficiency virus 1, KIZ006, PBMC
[4] = Tmax in Sprague-Dawley rat at 10 mg/kg, po measured upto 24 hrs; type: ADME, organism-based; conditions: in vivo
[5] = AUC (0 to infinitive) in Sprague-Dawley rat at 2 mg/kg, iv measured upto 24 hrs; type: ADME, organism-based; design: dose 2 mg/kg, time < 24 hrs, route iv; conditions: Sprague-Dawley, in vivo
[6] = Half life in Sprague-Dawley rat at 10 mg/kg, po measured upto 24 hrs; type: ADME, organism-based; conditions: in vivo
Cytochrome P450 3A4 [7] = target: T1, Cytochrome P450 3A4 (Homo sapiens, UniProt P08684); experiment: Inhibition of CYP3A4 (unknown origin) using testosterone as substrate; type: ADME
T1 sequence (P08684 whole entry): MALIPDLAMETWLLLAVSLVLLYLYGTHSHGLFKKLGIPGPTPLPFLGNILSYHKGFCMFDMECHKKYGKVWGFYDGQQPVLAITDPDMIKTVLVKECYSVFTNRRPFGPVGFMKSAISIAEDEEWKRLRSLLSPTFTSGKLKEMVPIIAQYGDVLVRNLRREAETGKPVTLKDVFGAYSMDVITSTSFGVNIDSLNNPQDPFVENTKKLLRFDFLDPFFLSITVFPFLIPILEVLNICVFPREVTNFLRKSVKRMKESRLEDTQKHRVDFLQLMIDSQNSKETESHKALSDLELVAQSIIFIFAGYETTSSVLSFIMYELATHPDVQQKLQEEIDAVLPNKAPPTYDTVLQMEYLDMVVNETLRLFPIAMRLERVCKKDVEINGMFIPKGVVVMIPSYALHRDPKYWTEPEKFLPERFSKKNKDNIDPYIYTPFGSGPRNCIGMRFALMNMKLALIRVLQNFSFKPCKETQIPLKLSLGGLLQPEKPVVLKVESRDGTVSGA

[8] = system: Human immunodeficiency virus 1; experiment: Antiviral activity against HIV-1 Ba-L infected in human TZM-bl cells measured after 48 hrs incubation by luciferase based analysis; type: functional, organism-based; conditions: Human immunodeficiency virus 1, Ba-L
[9] = system: Human immunodeficiency virus 1; experiment: Antiviral activity against HIV-1 SF162 infected in human TZM-bl cells measured after 48 hrs incubation by luciferase based analysis; type: functional, organism-based; conditions: Human immunodeficiency virus 1, SF162, TZM-bl
[10] = Cytotoxicity against human TZM-bl cells incubated for 48 hrs by MTT assay; type: toxicity, cell-based
[11] = Cytotoxicity against human HOS-CD4-CCR5 cells incubated for 48 hrs by MTT assay; type: toxicity, cell-based
Cytochrome P450 3A4 [12] = target: T1, Cytochrome P450 3A4; experiment: Inhibition of CYP3A4 (unknown origin) using midazolam as substrate; type: ADME
Cytochrome P450 2C19 = Cytochrome P450 2C19 (Homo sapiens, UniProt P33261); experiment: Inhibition of CYP2C19 (unknown origin); type: ADME
Sequence of Cytochrome P450 2C19 (P33261 whole entry): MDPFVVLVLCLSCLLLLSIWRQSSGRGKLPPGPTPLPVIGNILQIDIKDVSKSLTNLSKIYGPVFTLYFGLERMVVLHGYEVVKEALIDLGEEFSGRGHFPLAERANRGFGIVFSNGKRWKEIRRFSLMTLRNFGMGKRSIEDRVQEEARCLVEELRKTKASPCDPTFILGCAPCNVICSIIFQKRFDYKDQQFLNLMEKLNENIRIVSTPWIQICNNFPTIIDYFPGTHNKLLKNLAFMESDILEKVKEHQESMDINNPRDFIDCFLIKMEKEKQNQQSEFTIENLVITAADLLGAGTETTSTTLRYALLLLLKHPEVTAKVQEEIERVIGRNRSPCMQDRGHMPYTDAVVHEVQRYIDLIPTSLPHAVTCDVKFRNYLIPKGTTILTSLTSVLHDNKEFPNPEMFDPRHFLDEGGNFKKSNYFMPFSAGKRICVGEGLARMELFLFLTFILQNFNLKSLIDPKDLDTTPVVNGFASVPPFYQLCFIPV

[13] = system: Human immunodeficiency virus 1; experiment: Antiviral activity against HIV-1 KM018 clinical isolate infected in human PBMC measured after 48 hrs incubation by luciferase based analysis; type: functional, organism-based; conditions: Human immunodeficiency virus 1, KM018, PBMC
in vitro [14] = conditions: human, PBMC
Description: Therapeutic index, ratio of CC50 for human PBMC to EC50 for antiviral activity against HIV-1 KIZ006 clinical isolate

[15] = system: Human immunodeficiency virus 1; experiment: Antiviral activity against HIV-1 Ba-L infected in human HOS-CD4-CCR5 cells measured after 48 hrs incubation by ELISA based p24 antigen assay; type: functional, organism-based; conditions: Human immunodeficiency virus 1, Ba-L
[16] = AUC (0 to last) in Sprague-Dawley rat at 2 mg/kg, iv measured upto 24 hrs; type: ADME, organism-based; design: dose 2 mg/kg, time < 24 hrs, route iv; conditions: Sprague-Dawley, in vivo
Cytochrome P450 2D6 = Cytochrome P450 2D6 (Homo sapiens, UniProt P10635); experiment: Inhibition of CYP2D6 (unknown origin); type: ADME
Sequence of Cytochrome P450 2D6 (P10635 whole entry): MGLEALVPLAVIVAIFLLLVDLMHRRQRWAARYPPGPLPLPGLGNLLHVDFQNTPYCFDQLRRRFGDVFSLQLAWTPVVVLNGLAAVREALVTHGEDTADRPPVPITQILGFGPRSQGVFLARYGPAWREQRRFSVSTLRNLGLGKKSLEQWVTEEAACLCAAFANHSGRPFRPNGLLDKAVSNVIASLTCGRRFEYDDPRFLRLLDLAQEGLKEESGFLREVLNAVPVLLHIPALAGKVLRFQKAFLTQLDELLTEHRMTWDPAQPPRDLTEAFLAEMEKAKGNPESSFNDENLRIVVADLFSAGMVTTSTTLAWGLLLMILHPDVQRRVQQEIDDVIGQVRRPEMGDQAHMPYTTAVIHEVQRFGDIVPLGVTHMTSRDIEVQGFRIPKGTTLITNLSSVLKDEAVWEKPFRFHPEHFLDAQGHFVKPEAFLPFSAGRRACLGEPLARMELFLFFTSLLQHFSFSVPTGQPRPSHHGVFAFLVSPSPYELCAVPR

[17] = Half life in Sprague-Dawley rat at 2 mg/kg, iv measured upto 24 hrs; type: ADME, organism-based; conditions: in vivo, iv, 2 mg/kg, 24 h
in vitro [18] = conditions: human, PM1 cells
Description: Therapeutic index, ratio of CC50 for human PM1 cells to EC50 for antiviral activity against HIV-1 SF162

in vitro [19] = conditions: human, TZM-bl cells
Description: Therapeutic index, ratio of CC50 for human TZM-bl cells to EC50 for antiviral activity against HIV-1 Ba-L

[20] = Cytotoxicity against human PBMC cells incubated for 48 hrs by MTT assay; type: toxicity, cell-based
Cytochrome P450 2C9 = Cytochrome P450 2C9 (Homo sapiens, UniProt P11712); experiment: Inhibition of CYP2C9 (unknown origin); type: ADME
Sequence of Cytochrome P450 2C9 (P11712 whole entry): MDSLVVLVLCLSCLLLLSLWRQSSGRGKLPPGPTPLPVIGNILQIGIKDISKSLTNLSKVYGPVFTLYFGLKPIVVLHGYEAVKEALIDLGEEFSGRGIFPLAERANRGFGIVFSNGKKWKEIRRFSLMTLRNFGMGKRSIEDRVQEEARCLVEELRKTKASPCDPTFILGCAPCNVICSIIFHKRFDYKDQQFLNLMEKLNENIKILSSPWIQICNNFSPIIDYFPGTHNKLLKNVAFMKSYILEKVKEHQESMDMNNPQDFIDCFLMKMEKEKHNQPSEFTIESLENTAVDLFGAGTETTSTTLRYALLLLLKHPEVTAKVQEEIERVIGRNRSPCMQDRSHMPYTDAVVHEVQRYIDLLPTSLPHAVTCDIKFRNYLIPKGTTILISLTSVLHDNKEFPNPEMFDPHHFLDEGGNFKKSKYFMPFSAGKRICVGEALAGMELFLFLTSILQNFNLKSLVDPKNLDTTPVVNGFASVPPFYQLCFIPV

[21] = AUC (0 to infinitive) in Sprague-Dawley rat at 10 mg/kg, po measured upto 24 hrs; type: ADME, organism-based; design: dose 10 mg/kg, time < 24 hrs, route po; conditions: Sprague-Dawley, in vivo
[22] = target: C-C chemokine receptor type 5 (Homo sapiens, UniProt P51681); experiment: Antagonist activity at CCR5 (unknown origin) expressed in HEK293 cells co-expressing Galpha16 assessed as intracellular calcium change incubated for 15 mins by Fluo-4 AM calcium flux assay; type: functional, cell-based
Sequence of C-C chemokine receptor type 5 (P51681 whole entry): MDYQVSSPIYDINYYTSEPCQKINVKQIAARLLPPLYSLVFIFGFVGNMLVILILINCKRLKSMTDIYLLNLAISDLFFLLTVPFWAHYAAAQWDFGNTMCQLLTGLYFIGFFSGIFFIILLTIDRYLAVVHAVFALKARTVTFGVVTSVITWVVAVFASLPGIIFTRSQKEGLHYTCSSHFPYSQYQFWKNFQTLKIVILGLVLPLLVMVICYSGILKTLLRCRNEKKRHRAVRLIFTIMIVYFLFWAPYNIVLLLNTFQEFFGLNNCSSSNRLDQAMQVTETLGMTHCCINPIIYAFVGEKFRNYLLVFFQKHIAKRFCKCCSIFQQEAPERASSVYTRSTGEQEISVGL

[23] = MRT in Sprague-Dawley rat at 2 mg/kg, iv measured upto 24 hrs; type: ADME, organism-based; conditions: in vivo, iv, 2 mg/kg, 24 h
[24] = system: Human immunodeficiency virus 1; experiment: Antiviral activity against HIV-1 IIIB infected in human TZM-bl cells measured after 48 hrs incubation by luciferase based analysis; type: functional, organism-based; conditions: Human immunodeficiency virus 1, IIIB
[25] = MRT in Sprague-Dawley rat at 10 mg/kg, po measured upto 24 hrs; type: ADME, organism-based; conditions: in vivo
in vitro [26] = conditions: human, HOS-CD4-CCR5 cells
Description: Therapeutic index, ratio of CC50 for human HOS-CD4-CCR5 cells to EC50 for antiviral activity against HIV-1 Ba-L

in vitro [27] = conditions: human, PBMC; remark: listed apart in the source
Description: Therapeutic index, ratio of CC50 for human PBMC to EC50 for antiviral activity against HIV-1 KM018 clinical isolate

[28] = system: Human immunodeficiency virus 1; experiment: Antiviral activity against HIV-1 YU-2 (G140S/Q148H) infected in human TZM-bl cells measured after 48 hrs incubation by luciferase based analysis; type: functional, organism-based; conditions: Human immunodeficiency virus 1, YU-2 (G140S/Q148H)
in vitro [29] = conditions: human, PBMC; remark: listed apart in the source
Description: Therapeutic index, ratio of CC50 for human PBMC to EC50 for antiviral activity against HIV-1 KIZ001 clinical isolate

[30] = system: Human immunodeficiency virus 1; experiment: Antiviral activity against HIV-1 YU-2 infected in human TZM-bl cells measured after 48 hrs incubation by luciferase based analysis; type: functional, organism-based; conditions: Human immunodeficiency virus 1, YU-2, TZM-bl, 48 h
[31] = Cytotoxicity against human PM1 cells incubated for 48 hrs by MTT assay; type: toxicity, cell-based
in vitro [32] = conditions: human, PM1 cells; remark: listed apart in the source
Description: Therapeutic index, ratio of CC50 for human PM1 cells to EC50 for antiviral activity against HIV-1 Ba-L

[33] = system: Human immunodeficiency virus 1; experiment: Antiviral activity against HIV-1 Ba-L infected in human PM1 cells measured after 48 hrs incubation by ELISA based p24 antigen assay; type: functional, organism-based; conditions: Human immunodeficiency virus 1, Ba-L, PM1, 48 h
in vitro [34] = conditions: human, PM1 cells; remark: listed apart in the source
Description: Therapeutic index, ratio of CC50 for human PM1 cells to EC50 for antiviral activity against HIV-1 YU-2

[35] = Oral bioavailability in Sprague-Dawley rat at 10 mg/kg measured upto 24 hrs; type: ADME, organism-based; conditions: Sprague-Dawley, in vivo
Cytochrome P450 1A2 = target: T2, Cytochrome P450 1A2 (Homo sapiens, UniProt P05177); experiment: Inhibition of CYP1A2 (unknown origin); type: ADME
T2 sequence (P05177 whole entry): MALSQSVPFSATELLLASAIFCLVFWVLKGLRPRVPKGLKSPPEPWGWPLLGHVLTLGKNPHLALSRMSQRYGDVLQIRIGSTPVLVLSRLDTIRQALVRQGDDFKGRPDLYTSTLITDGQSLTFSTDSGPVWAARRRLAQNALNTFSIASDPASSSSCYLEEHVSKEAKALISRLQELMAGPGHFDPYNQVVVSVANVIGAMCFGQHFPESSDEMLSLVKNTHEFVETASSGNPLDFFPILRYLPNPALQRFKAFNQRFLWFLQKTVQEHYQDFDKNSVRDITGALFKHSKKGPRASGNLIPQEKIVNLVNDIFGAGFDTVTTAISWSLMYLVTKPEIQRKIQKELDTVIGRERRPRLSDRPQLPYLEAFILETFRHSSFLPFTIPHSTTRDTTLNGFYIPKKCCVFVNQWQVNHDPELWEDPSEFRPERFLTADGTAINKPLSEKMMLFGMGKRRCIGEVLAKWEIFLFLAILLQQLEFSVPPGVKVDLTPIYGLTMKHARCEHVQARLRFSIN

[36] = AUC (0 to last) in Sprague-Dawley rat at 10 mg/kg, po measured upto 24 hrs; type: ADME, organism-based; design: dose 10 mg/kg, time < 24 hrs, route po; conditions: in vivo

SMILES: Cc1nc2c(n1[C@@H]1C[C@H]3CC[C@@H](C1)N3CC[C@H](NC(=O)C1CCC(F)(F)CC1)c1ccsc1)CCN(C(=O)C(C)C)C2
- pEC50 [1]: 8.11
- Cmax [2]: 49.5 ng/mL
- pEC50 [3]: 7.90
- Tmax [4]: 2 h
- AUC(0-inf) [5]: 283 ng·h/mL
- half-life [6]: 618 min
- pIC50 (Cytochrome P450 3A4 [7]): < 4.60
- pEC50 [8]: 7.96
- pEC50 [9]: 7.80
- CC50 at 48 h [10]: > 200 µM
- CC50 at 48 h [11]: > 200 µM
- pIC50 (Cytochrome P450 3A4 [12]): < 4.60
- pIC50 (Cytochrome P450 2C19): < 4.60
- pEC50 [13]: 7.49
- selectivity ratio (in vitro [14]): 6480
- pEC50 [15]: 8.81
- AUC(0-t) at 24 h [16]: 298 ng·h/mL
- pIC50 (Cytochrome P450 2D6): < 4.60
- t1/2 [17]: 1.6 h
- selectivity ratio (in vitro [18]): > 12500
- selectivity ratio (in vitro [19]): > 18200
- CC50 at 48 h [20]: 81.7 µM
- pIC50 (Cytochrome P450 2C9): < 4.60
- AUC(0-inf) [21]: 283 ng·h/mL
- pIC50 [22]: 8.08
- MRT [23]: 13.2 h
- pEC50 [24]: < 6.00
- MRT [25]: 13.2 h
- selectivity ratio (in vitro [26]): > 12800
- selectivity ratio (in vitro [27]): 2550
- pEC50 [28]: 8.36
- selectivity ratio (in vitro [29]): 10400
- pEC50 [30]: 8.06
- CC50 at 48 h [31]: > 200 µM
- selectivity ratio (in vitro [32]): > 40000
- pEC50 [33]: 9.30
- selectivity ratio (in vitro [34]): > 22900
- bioavailability [35]: 15.7%
- pIC50 (Cytochrome P450 1A2): < 4.60
- AUC(0-t) at 24 h [36]: 283 ng·h/mL
